Experimental data published in PubChem BioAssay (NCI).
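Assay format: 96-well plates, 48-hour exposure. Abbreviation: GI50, concentration required for 50% inhibition of growth. The concentration for full growth arrest is given as TGI.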

Key:
Assay in all cases: NCI tumour cell line growth inhibition, 48 h
OVCAR-4 ovarian = tested on: OVCAR-4 ovarian
NCI-H226 lung = tested on: NCI-H226 lung
KM12 colon = tested on: KM12 colon
UACC-62 melanoma = tested on: UACC-62 melanoma
SNB-19 CNS = tested on: SNB-19 CNS
NCI-H522 lung = tested on: NCI-H522 lung
CCRF-CEM leukemia = tested on: CCRF-CEM leukemia
SK-OV-3 ovarian = tested on: SK-OV-3 ovarian
SR leukemia = tested on: SR leukemia
MDA-MB-231 breast = tested on: MDA-MB-231 breast

Structure (SMILES)	TGI (OVCAR-4 ovarian) [µM]	TGI (NCI-H226 lung) [µM]	TGI (KM12 colon) [µM]	TGI (UACC-62 melanoma) [µM]	TGI (SNB-19 CNS) [µM]	TGI (NCI-H522 lung) [µM]	TGI (CCRF-CEM leukemia) [µM]	TGI (SK-OV-3 ovarian) [µM]	TGI (SR leukemia) [µM]	TGI (MDA-MB-231 breast) [µM]	GI50 (OVCAR-4 ovarian) [µM]	GI50 (MDA-MB-231 breast) [µM]	GI50 (NCI-H226 lung) [µM]	GI50 (KM12 colon) [µM]	GI50 (UACC-62 melanoma) [µM]	GI50 (NCI-H522 lung) [µM]	GI50 (CCRF-CEM leukemia) [µM]	GI50 (SK-OV-3 ovarian) [µM]
CCOC(=O)C(=O)C=P(c1ccccc1)(c1ccccc1)c1ccccc1	> 100	> 100	> 100	> 100	> 100	> 100	> 100	> 100	> 100									
COC(=O)C1CCN(C(=O)OC(C)(C)C)CC1	> 100		> 100	> 100	> 100	> 100	> 100		> 100	> 100								
C1CSCCSCCCSC2CCCCC2SC1 (stereo not drawn)	> 100		> 100	> 100	> 100	> 100	> 100	> 100	> 100	> 100								
Cc1c[n+]2c3ccccc3c3ccccc3c2s1	32.7	3.89	9.4	> 47.1	15.6	15.7	28.4	> 71.4	32.3									
Nc1ccc2[nH]c(-c3cccc(C(F)(F)F)c3)cc(=O)c2c1	> 100		> 100	> 100	> 100	> 100	59.9	> 100	97.8	> 100	62.9							
CSC1NC(c2ccccc2)=C(C#N)C(=O)N1C1OCC(OC(C)=O)C(OC(C)=O)C1OC(C)=O (stereo not drawn)	> 100	> 100	> 100	> 100	> 100	> 100		> 100	> 100	> 100								
COc1cc2c(c(OC)c1OC)-c1ccc(SC)c(=O)cc1C(CC(=O)Oc1cccc([N+](=O)[O-])c1)C2 (stereo not drawn)	> 100	3.51	5.4		> 100	5.81	> 57.2	> 100										
COCCN(CCNC(=O)c1cccc2c(N)c3cccc(C)c3nc12)CCOC	6.38	6.15	6.93	10.6	22.3	0.894	> 26.2	42.1		5.43								
CC1(c2sccc2Cl)CC(c2sccc2Cl)=C(C#N)C(=C(C#N)C#N)N1 (stereo not drawn)	66.1		46	32.5	38.5	35.8	> 100	31.5		42.9								
CNC(=O)NCNC(=O)NC	> 100		> 100	> 100			> 100	> 100										
CCOP(=O)(OCC)/C(C#N)=C/c1cccn1C(C)C		> 100	> 100	> 100	> 100	> 100		> 100	> 100	> 100								
Cc1c(C)c(C)c(Cn2[nH]c(=O)n(C)c2=O)c(C)c1C		> 100	> 100	> 100	> 100	> 100	> 100	> 100		> 100								
CCC(C)C(N)C(=O)NC(CC(N)=O)C(=O)NC(CC(C)C)C(=O)NC(CCCCN)C(=O)NC(C)C(=O)NC(CC(C)C)C(=O)NC(C)C(=O)NC(C)C(=O)NC(CC(C)C)C(=O)NC(C)C(=O)NC(CCCCN)C(=O)NC(CCCCN)C(=O)NC(C(=O)NC(CC(C)C)C(N)=O)C(C)CC (stereo not drawn)	31.9	29	29.5	13.8	27.8	33.3	18.6	33.7	46.1									
CCCCCCCCCCCCOP(=O)(O)OP(=O)(O)OCC1OC(n2ccc(N)nc2=O)CC1O (stereo not drawn)	> 100	> 100	> 100	> 100	> 100	> 100	> 100	> 100		> 100								
CCOC(=O)c1nc2ccc(C(F)(F)F)cc2nc1Nc1cc(OC)c(OC)c(OC)c1			> 100	> 100	> 100	> 100	> 100	> 100	> 100	> 100								
COc1cccc(/C=N/NC(=O)CSCC(=O)N/N=C/c2cccc(OC)c2OC)c1OC	> 100	> 100	> 100	> 100	> 100	> 100		> 100	> 100	> 100								
COc1cc(C(=O)O[C@H](C(=O)NCCCNC(=O)[C@@H](OC(=O)c2cc(OC)cc3c(C)cccc23)[C@]2(C)CO2)[C@]2(C)CO2)c2cccc(C)c2c1	0.231	0.762	0.607	2.14	0.701	< 0.01		1.98		0.579	< 0.01	0.153	0.151	0.101	0.962	< 0.01	< 0.01	0.501
CCOC(=O)C(NC(=O)c1ccccc1)(Nc1ccc(S(=O)(=O)Nc2ncccn2)cc1)C(F)(F)F (stereo not drawn)	> 100	> 100	> 100	> 100	> 100		> 100	> 100	> 100	> 100								
CC(Oc1ccccc1Cl)C(=O)NN1C(=O)CC(=O)N(c2ccccc2)C1=S (stereo not drawn)	> 100	> 100	> 100	> 100	> 100	> 100		> 100	> 100	> 100								
N#CCc1c(-c2ccccc2)n(S(=O)(=O)c2ccccc2)c2ccccc12	> 100	> 100	> 100	> 100	> 100		> 100		> 100									
Clc1cccc(-c2sc(-c3ccsc3)cc2Cc2ccsc2)c1	> 10		> 10	> 10			> 10	> 10	> 10	> 10								
CC(=O)Oc1cc(S(=O)(=O)Nc2n[nH]c(Nc3ccc(C)cc3)n2)c(S)cc1Cl	> 100		> 100	> 100	> 100	> 100	> 100		> 100	> 100								
COc1ccccc1Cc1ccc(C2C=CC3(CC(=O)C=C3C)C(=O)C2)o1 (stereo not drawn)	> 100	61.6	> 100	31.8	> 100	37.4			43.9	50.1								
